One data set concerns caco-2 cell tissue. The data set can be described thus: in vitro. An excerpt: (§1) This cell line forms on polycarbonate membranes a tissue assemblage which is very similar in appearance and protein composition to small intestinal […]. In the Transwell system (from Costar, Bodenheim, Germany), this artificial endothelial tissue separates two chambers, which are filled with medium, into the apical and the basolateral compartment. This design allows the permeation of a substance through the caco-2 tissue layer to be determined. […] An improvement in permeability is indicated by the reversible opening of the tight junctions.
(§2) Caco-2 cells were cultivated in DMEM (Dulbeccos Modified Eagle's Medium, from Gibco BRL, Eggenstein, Germany) with 10% FCS (fetal calf serum), 1% L-glutamine and 4.5 mg/ml glucose at 37° C. with 5% CO2 and 95% relative humidity. After trypsinization, the cells were spread at a density of 3×10^5 cells/cm^2 on transwell polycarbonate filters. Cells between the 30th and 50th passage were used to form monolayers. The monolayers were employed in the experiment 15-21 days (medium change every three days) after spreading of the cells.
(§3) Before the experiment, the caco-2 cell tissue was washed in the Transwell filter inserts with PBS (phosphate buffer saline). Then the apical compartment was filled with EBSS (Earl's buffered salt solution, pH 6) and the basolateral compartment was filled with DMEM. After addition of the polymer to be tested, which had been neutralized to pH 7, [Kollicoat® MAE 30D (ethyl acrylate/methacrylic acid 1:1, BASF), Eudragit® L100 (methacrylic acid/methyl methacrylate 1:1, Röhm), Eudragit® S100 (methacrylic acid/methyl methacrylate 1:2, Röhm)] in a concentration of 0.5-3% by weight and of the tracer substance into the apical compartment, samples were taken after 24 hours, and the permeation rate of the tracer substance was determined.
(§4) The experiments were analyzed by fluorescence spectrophotometry (Spex Fluorolog 1680: excitation wavelength: 488 nm, emission wavelength: 513 nm), and in the case of C22H32N6O4 by HPLC (column material: Vidac C-18; mobile phase: water/acetonitrile/0.1% trifluoroacetic acid; detection: 240 nm), the experimental results are compiled in Table 1. Measurements which were not done have been indicated by “−”.

The next data set can be described thus: in vitro. The conditions noted are these: human, Caco-2, pH 6.
From the text: as §1, §2, §3, §4

Consider `N=C(N)c1ccc(CNC(=O)[C@@H]2CCCN2C(=O)[C@H](NCC(=O)O)C2CCCCC2)cn1` [C22H32N6O4, HOOC—CH2—(D)-Cha-Pro-NH-3-(6-Am)-Pico], for which the Permeation rate in the data set with caco-2 cell tissue (human, Caco-2, 24 h, pH 6) is listed as 56 (cm/sec) · 10^−8. In addition, the Papp A→B (usually the apparent permeability from the apical to the basolateral side of a cell layer) at 24 h in the data set “in vitro” was determined as 0.56 ×10⁻⁶ cm/s.
As for `O=C(CCCCCNC(=O)CCCC[C@@H]1SC[C@@H]2NC(=O)N[C@@H]21)NCCCCCNC(=S)Nc1ccc2c(c1)C(=O)OC21c2ccc(O)cc2Oc2cc(O)ccc21` [Fluorescein-biotin, (biotin-amidocaproylamido)-(pentylthioureidyl)-fluorescein], the Permeation rate was 2.3 (cm/sec) · 10^−8 with caco-2 cell tissue (Control (no polymer), caco-2 monolayer, apical EBSS pH 6, samples after 24 hours); 4.8 (cm/sec) · 10^−8 in the data set on caco-2 cell tissue (with Eudragit L 100 2.0% by weight (neutralized to pH 7) apical, 24 hours); 7.1 (cm/sec) · 10^−8 in the data set with caco-2 cell tissue (with Eudragit S 100 2.0% by weight (neutralized to pH 7) apical, 24 hours); 2.3 (cm/sec) · 10^−8 in the data set with caco-2 cell tissue (with Kollicoat MAE 30 D 0.5% by weight (neutralized to pH 7) apical, 24 hours); 5.8 (cm/sec) · 10^−8 in the data set on caco-2 cell tissue (with Kollicoat MAE 30 D 1.0% by weight (neutralized to pH 7) apical, 24 hours); 20 (cm/sec) · 10^−8 in the data set on caco-2 cell tissue (with Kollicoat MAE 30 D 1.5% by weight (neutralized to pH 7) apical, 24 hours).

The record behind these values is patent publication US6555124B1, “Use of (meth)acrylic acid copolymers to increase the permeability of mucous membranes” (BASF Aktiengesellschaft, priority 1996, dated 2003).
